The target of the experiment is TBK1 (Homo sapiens (Human), UniProt Q9UHD2). As to the kind of experiment: TBK1 low ATP kinase assay (in vitro assay 1). The format is biochemical.
The mark [1] stands for this setting: in vitro assay 1, read-out: TBK1 low ATP kinase assay IC50.

Like-named read-outs stand apart in the source and are kept apart here.

As a reminder, the IC50 is the concentration at which inhibition is half-maximal.

TBK1, sequence (Q9UHD2 whole entry): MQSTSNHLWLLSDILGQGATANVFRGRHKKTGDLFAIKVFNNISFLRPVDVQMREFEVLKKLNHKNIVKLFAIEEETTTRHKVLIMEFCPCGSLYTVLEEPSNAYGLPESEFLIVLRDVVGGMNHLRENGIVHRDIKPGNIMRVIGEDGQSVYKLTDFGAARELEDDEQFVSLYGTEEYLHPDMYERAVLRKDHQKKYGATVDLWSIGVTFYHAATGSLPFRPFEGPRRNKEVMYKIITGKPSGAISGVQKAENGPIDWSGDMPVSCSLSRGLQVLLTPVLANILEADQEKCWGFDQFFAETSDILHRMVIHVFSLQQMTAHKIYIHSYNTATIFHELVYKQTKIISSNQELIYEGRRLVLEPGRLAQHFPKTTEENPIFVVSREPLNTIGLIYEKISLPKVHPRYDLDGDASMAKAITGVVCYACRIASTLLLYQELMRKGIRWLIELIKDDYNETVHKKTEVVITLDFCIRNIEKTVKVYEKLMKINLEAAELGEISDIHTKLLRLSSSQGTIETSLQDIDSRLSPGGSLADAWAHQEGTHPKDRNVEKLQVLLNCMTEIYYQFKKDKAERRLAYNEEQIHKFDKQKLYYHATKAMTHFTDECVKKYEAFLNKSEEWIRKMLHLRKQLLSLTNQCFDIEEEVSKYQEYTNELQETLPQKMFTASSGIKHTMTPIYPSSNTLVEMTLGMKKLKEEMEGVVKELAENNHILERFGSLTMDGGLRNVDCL

As for `CC(c1ccnc(Nc2nc3ccc(-c4cc(N5CC(C(F)(F)F)C5)ncn4)cc3[nH]2)c1)N1CCN(C(=O)[C@@H]2CC2(F)F)CC1` (single isomer, unassigned) [Example 164.05, ((1RS)-2,2-difluorocyclopropyl){4-[(1R or 1S)-1-[2-[(6-{6-[3-(trifluoromethyl)azetidin-1-yl]pyrimidin-4-yl}-1H-benzimidazol-2-yl)amino]pyridin-4-yl}ethyl]piperazin-1-yl}methanone], the half-maximal inhibitory concentration (IC50) under setting [1] came out at 0.566 nM.
Same read-out and setting: the same measure for `CC(c1ccnc(Nc2nc3ccc(-c4cnn(CC5CC5(F)F)c4)cc3[nH]2)c1)N1CCN(C(=O)OC(C)(C)C)CC1` (single isomer, unassigned) [Example 55.01.02, tert-butyl 4-[(1R or 1S)-1-(2-{[6-(1-{[(1R or 1S)-2,2-difluorocyclopropyl]methyl}-1H-pyrazol-4-yl)-1H-benzimidazol-2-yl]amino}pyridin-4-yl)ethyl]piperazine-1-carboxylate]: 4.8 nM; for `CNc1cc(-c2ccc3nc(Nc4cc(CN5CCN(C(=O)CC(F)(F)F)CC5)ccn4)[nH]c3c2)ncn1` [Example 150.02, 3,3,3-trifluoro-1-(4-{[2-({6-[6-(methylamino)pyrimidin-4-yl]-1H-benzimidazol-2-yl}amino)pyridin-4-yl]methyl}piperazin-1-yl)propan-1-one]: 9.6 nM.
Turning to `O=C(CC(F)(F)F)N1CCN(Cc2ccnc(Nc3nc4ccc(-c5cnn(CC6CCC6)c5)cc4[nH]3)c2)CC1` [Example 59.02.01, 1-(4-{[2-({6-[1-(cyclobutylmethyl)-1H-pyrazol-4-yl]-1H-benzimidazol-2-yl}amino)pyridin-4-yl]methyl}piperazin-1-yl)-3,3,3-trifluoropropan-1-one], it took 7.56 nM to reach half-maximal inhibition (TBK1 low ATP kinase assay IC50, in vitro assay 1) (IC50).
For `Cc1noc(-c2ccc3nc(Nc4cc(CN5CCN(c6cccc(F)c6)CC5)ccn4)[nH]c3c2)n1` [Example 101.09, N-(4-{[4-(3-fluorophenyl)piperazin-1-yl]methyl}pyridin-2-yl)-6-(3-methyl-1,2,4-oxadiazol-5-yl)-1H-benzimidazol-2-amine], the IC50 under setting [1] came out at 460 nM.
With `CC(c1ccnc(Nc2nc3ccc(-c4cnn(CC5CC5)c4)c(Cl)c3[nH]2)c1)N1CCN(C(=O)C2CC2)CC1` (single isomer, unassigned) [Example 122.03, (4-{(1R or 1S)-1-[2-({7-chloro-6-[1-(cyclopropylmethyl)-1H-pyrazol-4-yl]-1H-benzimidazol-2-yl}amino)pyridin-4-yl]ethyl}piperazin-1-yl)(cyclopropyl)methanone], the half-inhibitory concentration (IC50) under setting [1] is 1.1 nM.
In the case of `COc1cncnc1-c1ccc2nc(Nc3cc(CN4CCN(S(=O)(=O)C5CCCCC5)CC4)ccn3)[nH]c2c1` [Example 35.01.13, N-(4-{[4-(cyclohexylsulfonyl)piperazin-1-yl]methyl}pyridin-2-yl)-6-(5-methoxypyrimidin-4-yl)-1H-benzimidazol-2-amine], the IC50 under setting [1] came to 60.9 nM.
As to `CN(CC(F)(F)F)c1cc(-c2ccc3nc(Nc4cc(CN5CCN(C(=O)CC(F)(F)F)CC5)ccn4)[nH]c3c2)ncn1` [Example 146.02, 3,3,3-trifluoro-1-[4-({2-[(6-{6-[methyl(2,2,2-trifluoroethyl)amino]pyrimidin-4-yl}-1H-benzimidazol-2-yl)amino]pyridin-4-yl}methyl)piperazin-1-yl]propan-1-one], under setting [1], the concentration for half-maximal inhibition (IC50) turned out to be 9.8 nM.
On the same count and under the same terms, under `CCOc1cnc(C)cc1-c1ccc2nc(Nc3cc(CN4CCN(C(=O)CC5CC5)CC4)ccn3)[nH]c2c1` [Example 09.03, 2-cyclopropyl-1-{4-[(2-{[6-(5-ethoxy-2-methylpyridin-4-yl)-1H-benzimidazol-2-yl]amino}pyridin-4-yl)methyl]piperazin-1-yl}ethanone] stands 324 nM; under `Cc1noc(-c2ccc3nc(Nc4cc(CN5C[C@@H](C)N(C(=O)CC(F)(F)F)C[C@@H]5C)ccn4)[nH]c3c2)n1` [Example 16.02.02, 1-{(2R,5S)-2,5-dimethyl-4-[(2-{[6-(3-methyl-1,2,4-oxadiazol-5-yl)-1H-benzimidazol-2-yl]amino}pyridin-4-yl)methyl]piperazin-1-yl}-3,3,3-trifluoropropan-1-one], 335 nM; under `COc1c(-c2ccc3nc(Nc4cc(C(C)N5CCN(C(=O)C6CC6)CC5)ccn4)[nH]c3c2)ncnc1N(C)C` (single isomer, unassigned) [Example 107.02.02, cyclopropyl(4-{(1R or 1S)-1-[2-({6-[6-(dimethylamino)-5-methoxypyrimidin-4-yl]-1H-benzimidazol-2-yl}amino)pyridin-4-yl]ethyl}piperazin-1-yl)methanone], 5.9 nM.
On the same count and under the same terms, the same measure for `CC(c1ccnc(Nc2nc3ccc(-c4cnn(CC5CC5(F)F)c4)c(F)c3[nH]2)c1)N1CCN(C(=O)CC(F)(F)F)CC1` (single isomer, unassigned) [Example 86.02, 1-{4-[(1R or 1S)-1-(2-{[6-(1-{[(1RS)-2,2-difluorocyclopropyl]methyl}-1H-pyrazol-4-yl)-7-fluoro-1H-benzimidazol-2-yl]amino}pyridin-4-yl)ethyl]piperazin-1-yl}-3,3,3-trifluoropropan-1-one]: 2.1 nM; for `Cc1cc(-c2ccc3nc(Nc4cc(C(C)N5CCN(C(=O)CC6CC6)CC5)ccn4)[nH]c3c2)ncn1` (racemic) [Example 30.02.04, (rac)-2-cyclopropyl-1-{4-[1-(2-{[6-(6-methylpyrimidin-4-yl)-1H-benzimidazol-2-yl]amino}pyridin-4-yl)ethyl]piperazin-1-yl}ethanone]: 9.35 nM; for `O=C(C1CC1)N1CCN(Cc2ccnc(Nc3nc4ccc(-c5ncnc6ccoc56)cc4[nH]3)c2)CC1` [Example 168.03, cyclopropyl{4-[(2-{[6-(furo[3,2-d]pyrimidin-4-yl)-1H-benzimidazol-2-yl]amino}pyridin-4-yl)methyl]piperazin-1-yl}methanone]: 7.12 nM.
On the same count and under the same terms, under `O=C(C1CC1)N1CCN(Cc2ccnc(Nc3nc4ccc(-c5ncnc(NCC6CCC6)c5F)cc4[nH]3)c2)CC1` [Example 191.03] stands 94.8 nM.
Consider `Cc1cc(-c2ccc3nc(Nc4cc(C(C)N5CCN(C(=O)OC(C)(C)C)CC5)ccn4)[nH]c3c2F)ncn1` (single isomer, unassigned) [Example 172.01, tert-butyl 4-[(1R or 1S)-1-(2-{[7-fluoro-6-(6-methylpyrimidin-4-yl)-1H-benzimidazol-2-yl]amino}pyridin-4-yl)ethyl]piperazine-1-carboxylate], for which the IC50 under setting [1] was found to be 39.8 nM.
For the compound `COc1cc(-c2ccc3nc(Nc4cc(CN5CCN(C(=O)CC6CC6)CC5)ccn4)[nH]c3c2)ccn1` [Example 02.05, 2-cyclopropyl-1-{4-[(2-{[6-(2-methoxypyridin-4-yl)-1H-benzimidazol-2-yl]amino}pyridin-4-yl)methyl]piperazin-1-yl}ethanone], under setting [1], the IC50 was found to be 49.8 nM.
The same measure, in the same setting: the same measure for `CC(C)(C)OC(=O)N1CCN(Cc2ccnc(Nc3nc4ccc(-c5ccnc(N)c5)cc4[nH]3)c2)CC1` [Example 138.01, tert-butyl 4-[(2-{[6-(2-aminopyridin-4-yl)-1H-benzimidazol-2-yl]amino}pyridin-4-yl)methyl]piperazine-1-carboxylate]: 5.8 nM.
In the case of `Cc1noc(-c2ccc3nc(Nc4cc(CN5CCN(C(=O)CC6CC6)C[C@H]5C)ccn4)[nH]c3c2)n1` [Example 16.03.03, 2-cyclopropyl-1-{(3R)-3-methyl-4-[(2-{[6-(3-methyl-1,2,4-oxadiazol-5-yl)-1H-benzimidazol-2-yl]amino}pyridin-4-yl)methyl]piperazin-1-yl}ethanone], the IC50 under setting [1] amounted to 67 nM.
For the compound `Cc1noc(-c2ccc3nc(Nc4cc(CN5CCN(C(=O)N6CCCC6)CC5)ccn4)[nH]c3c2)n1` [Example 101.31, {4-[(2-{[6-(3-methyl-1,2,4-oxadiazol-5-yl)-1H-benzimidazol-2-yl]amino}pyridin-4-yl)methyl]piperazin-1-yl}(pyrrolidin-1-yl)methanone], the IC50 under setting [1] worked out at 510 nM.
As to `CC(c1ccnc(Nc2nc3ccc(-c4cnn(CC5CCC5)c4)cc3[nH]2)c1)N1CCN(C(=O)OC(C)(C)C)CC1` (single isomer, unassigned) [Example 59.01.01, tert-butyl 4-{(1R or 1S)-1-[2-({6-[1-(cyclobutylmethyl)-1H-pyrazol-4-yl]-1H-benzimidazol-2-yl}amino)pyridin-4-yl]ethyl}piperazine-1-carboxylate], the IC50 under setting [1] is 14.2 nM.
With `Cc1noc(-c2ccc3nc(Nc4cc(CN5CCN(C=O)CC5)ccn4)[nH]c3c2)n1` [Example 101.01, 4-[(2-{[6-(3-methyl-1,2,4-oxadiazol-5-yl)-1H-benzimidazol-2-yl]amino}pyridin-4-yl)methyl]piperazine-1-carbaldehyde], the IC50 under setting [1] is 680 nM.
On to `Cc1noc(-c2ccc3nc(Nc4cc(CN5CCN(C(=O)C6CC6)CC5)ccn4)[nH]c3c2)n1` [Example 16.01.04, cyclopropyl{4-[(2-{[6-(3-methyl-1,2,4-oxadiazol-5-yl)-1H-benzimidazol-2-yl]amino}pyridin-4-yl)methyl]piperazin-1-yl}methanone], for which, under setting [1], the IC50 was determined as 67 nM.
With `COc1cc(-c2ccc3nc(Nc4cc(CN5CCN(C(=O)C6CC6)CC5)ccn4)[nH]c3c2OCC(C)C)ccn1` [Example 49.01, cyclopropyl{4-[(2-{[6-(2-methoxypyridin-4-yl)-7-(2-methylpropoxy)-1H-benzimidazol-2-yl]amino}pyridin-4-yl)methyl]piperazin-1-yl}methanone], the IC50 under setting [1] was 217 nM.
In the case of `COc1ccncc1-c1ccc2nc(Nc3cc(CN4CCN(C(=O)C5CCC5)CC4)ccn3)[nH]c2c1` [Example 14.01, cyclobutyl{4-[(2-{[6-(4-methoxypyridin-3-yl)-1H-benzimidazol-2-yl]amino}pyridin-4-yl)methyl]piperazin-1-yl}methanone], the IC50 under setting [1] is 195 nM.
With `CC(c1ccnc(Nc2nc3ccc(-c4cnn(C(C)C5CC5)c4)cc3[nH]2)c1)N1CCN(C(=O)OC(C)(C)C)CC1` (single isomer, unassigned) [Example 74.01, tert-butyl 4-[(1R or 1S)-1-{2-[(6-{1-[(1RS)-1-cyclopropylethyl]-1H-pyrazol-4-yl}-1H-benzimidazol-2-yl)amino]pyridin-4-yl}ethyl]piperazine-1-carboxylate], the IC50 under setting [1] amounted to 120 nM.

The values above are taken from patent publication US10894784B2, “Heteroarylbenzimidazole compounds” (BAYER PHARMA AKTIENGESELLSCHAFT, priority 2015, dated 2021).
